Where two headings read alike, the source gives them in different places.
Columns and labels:
egg plant = test: Phytotoxicity observed visually in the mite test on egg plant; assay type: in vivo; design: key: —: None; +: Slightly toxic; ++: Toxic; +++: Strongly toxic; settings: 500 ppm, observed visually on the 7th day after the application
Procedure: (§1) (A) An emulsifiable concentrate prepared as described in Formulation Example 1 and diluted to a predetermined concentration was sprayed using a spray-gun on a seedling of an egg plant placed in a pot of 12 cm in diametre to which plant carmine mites resistant to Kelthane were parasitic. After drying in air, seedlings were kept in a green house, and the number of living insects was recorded on the 7th, 14th, 21 st and 28th day from the day of application to determine the control effects. Three pots were used for each treatment. The control effect was assessed by the formula described in TEST EXAMPLE 7 above. Further, phytotoxicity was observed visually on the 7th day after the application.
as §1, with “(B) An” for “(A) An”, “Example 3” for “Example 1”, “in diameter” for “in diametre”, “in Test” for “in TEST”

[1] = test system: carmine mites resistant to Kelthane; test: Miticidal effect on carmine mite resistant to Kelthane (sprayed egg plant seedling); assay type: in vivo, Tetranychus cinnabarius; settings: 500 ppm; for Number of Living Mites after Application 7th Day / Number of Living Mites after Application 14th Day / Number of Living Mites after Application 21st Day / Number of Living Mites after Application 28th Day: egg plant seedling; for Control Effect (%): from mite counts on 7th, 14th, 21st and 28th day
Procedure: as §1
as §1, with “(B) An” for “(A) An”, “Example 3” for “Example 1”, “in diameter” for “in diametre”, “in Test” for “in TEST”

tobacco cutworm = test: Long-lasting insecticidal effect on tobacco cutworm (sprayed cabbage plantlet); assay type: in vivo, Prodenia litura; settings: concentration 500 (unit not given), mortality after 48 hours; for Percent Mortality After Application 3rd Day: leaves cut on 3rd day; for Percent Mortality After Application 5th Day: leaves cut on 5th day; for Percent Mortality After Application 7th Day: leaves cut on 7th day; for Percent Mortality After Application 10th Day: leaves cut on 10th day; for Percent Mortality After Application 15th Day: leaves cut on 15th day
Method in brief: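 Cabbage plantlets sprayed with water-diluted emulsifiable concentrate and held in a greenhouse; leaves cut on days 3, 5, 7, 10 and 15 and fed to 3rd-instar larvae at 25°C. Percent mortality scored after 48 h; 3 replicates, 30 insects each.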

rice stem borer = test: Insecticidal effect on rice stem borer, 3rd-instar larvae (rice seedling dip); assay type: in vivo, Chilo suppressalis; settings: after 72 hours, 25°C
Method in brief: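 Wettable-powder formulations were diluted in water to set concentrations, and rice seedlings were dipped in them. Ten 3rd-instar larvae were placed per capped cup with the treated seedlings and held at 25°C.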

apple leaf miner = test: Insecticidal effect on apple leaf miner (sprayed apple seedling); assay type: in vivo, Lithocolletis ringoniella; settings: Phyllonorycter ringoniella, 336 h, 500 ppm, fourteen days after spraying
Method in brief: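 Wettable-powder suspensions were sprayed onto potted apple seedlings infested with newly hatched leaf miner larvae, then kept in a greenhouse.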

carmine mites = test: Miticidal effect on carmine mite (sprayed kidney bean seedling); assay type: in vivo, Tetranychus cinnabarius; settings: 500 ppm
Procedure: An emulsifiable concentrate prepared as described in Formulation Example 1 and diluted to a predetermined concentration was sprayed using a spray-gun on a seedling of a kidney bean placed in a pot of 12 cm in diameter to which plant carmine mites were parasitic. After drying in air, seedlings were kept in a green house, and the number of living insects was recorded on the 7th, 14th, 21st and 28th day from the day of application to determine the control effects. Three pots were used for each treatment. The control effect was assessed by the following formula: [formula] • wherein Σ indicates sum and Cb, Tb, Cai and Tai have the following meanings. • Cb: Number of living mites in non-treated sample before application. • Tb: Number of living mites in treated sample before application. • Cai: Number of living mites in non-treated sample 7th, 14th, 21 st or 28th day from the application. • Tai: Number of living mites in treated sample 7th, 14th, 21st or 28th day from the application.

[2] = Table 13, Formulation Example 1
[3] = Table 1, 500 ppm, wettable powder as Formulation Example 5
[4] = Table 10, wettable powder as Formulation Example 5, read-out: Percent Morality (%)
[5] = Table 14, Formulation Example 3

Row | Compound | Phytotoxicit (egg plant; Table 13) | Number of Living Mites after Application 7th Day [1, 2] | Number of Living Mites after Application 14th Day [1, 2] | Number of Living Mites after Application 21st Day [1, 2] | Number of Living Mites after Application 28th Day [1, 2] | Control Effect (%) ([1]; Table 13) | Percent Mortality After Application 3rd Day (tobacco cutworm; Table 5) | Percent Mortality After Application 5th Day (tobacco cutworm; Table 5) | Percent Mortality After Application 7th Day (tobacco cutworm; Table 5) | Percent Mortality After Application 10th Day (tobacco cutworm; Table 5) | Percent Mortality After Application 15th Day (tobacco cutworm; Table 5) | Percent Mortality (%) (rice stem borer; [3]) | mortality at 500 ppm (apple leaf miner; [4]) | Control Effect (%) (carmine mites) | Number of Living Mites after Application 7th Day (carmine mites) | Number of Living Mites after Application 14th Day (carmine mites) | Number of Living Mites after Application 21st Day (carmine mites) | Number of Living Mites after Application 28th Day (carmine mites) | other results
1 | CCCSP(=O)(OC)Oc1ccc2c(c1)OC(C)=CC2(C)C (stereo not shown) [Compound No. 1] | — | 0 | 0 | 5 | 11 | 99.0% | 100% | 100% | 100% | 100% | 100% | 100% | 100% | 99.6% | 0 | 0 | 0 | 3 | 
2 | CCCSP(=O)(OCC)Oc1ccc2c(c1)OC(C)(C)C=C2C (stereo not shown) [Compound No. 20, O-ethyl-S-propyl-0-(2,2,4-trimethyl-1,2-benzopyran-7-yl)phosphorothioate] |  |  |  |  |  |  | 100% | 100% | 100% | 100% | 33.3% | 100% | 100% |  |  |  |  |  | Percent Mortality After Application 3rd Day (tobacco cutworm; Table 6): 100%; Percent Mortality After Application 5th Day (tobacco cutworm; Table 6): 100%; Percent Mortality After Application 7th Day (tobacco cutworm; Table 6): 100%; Percent Mortality After Application 10th Day (tobacco cutworm; Table 6): 90.0%; Percent Mortality After Application 15th Day (tobacco cutworm; Table 6): 46.7%; Percent Mortality After Application Immediately after Application (tobacco cutworm; Table 6): 100%; Percent Mortality (%) (rice stem borer; Table 1, 100 ppm, wettable powder as Formulation Example 5): 100%; Percent Mortality (%) (rice stem borer; Table 2, 100 ppm, wettable powder as Formulation Example 7): 100%; mortality at 500 ppm (apple leaf miner; Table 11, wettable powder as Formulation Example 7, read-out: Percent Mortality (%)): 96.6%
3 | CCCSP(=S)(OCC)Oc1ccc2c(c1)OC(C)=CC2(C)C (stereo not shown) [Compound No. 10] | — | 0 | 0 | 4 | 16 | 99.0% | 100% | 100% | 100% | 100% | 96.7% | 100% | 100% | 97.6% | 0 | 0 | 2 | 19 | Phytotoxicit (egg plant; Table 14): —; Number of Living Mites after Application 7th Day [1, 5]: 0; Number of Living Mites after Application 14th Day [1, 5]: 0; Number of Living Mites after Application 21st Day [1, 5]: 0; Number of Living Mites after Application 28th Day [1, 5]: 12; Control Effect (%) ([1]; Table 14): 98.7%
4 | CCCSP(=O)(OCC)Oc1ccc2c(c1)OC(C)=CC2(C)C (stereo not shown) [Compound No. 2, O-ethyl-S-propyl-O-(2,4,4-trimethyl-1,4-benzopyran-7-yl)phosphorothioate] | — | 0 | 0 | 7 | 10 | 99.1% | 100% | 100% | 100% | 100% | 100% | 100% | 100% | 99.0% | 0 | 0 | 0 | 11 | 
5 | CCCSP(=S)(OC)Oc1ccc2c(c1)OC(C)=CC2(C)C (stereo not shown) [Compound No. 9, 0-methyl-S-propyl-(2,4,4-trimethyl-1,4-benzopyran-7-yl)phosphorodithioate] | — | 0 | 0 | 0 | 0 | 100% | 100% | 100% | 100% | 100% | 93.3% | 100% | 100% | 99.0% | 0 | 0 | 0 | 8 | 

Reference: EP0054589B1, “Organic phosphoric acid ester derivatives, a process for preparing the same and insecticidal, miticidal or nematocidal compositions containing the same” (priority 1980, dated 1982)
